Here are results for 3 compounds from patent US20240325379A1, “LOW-DOSE NALTREXOL AND USES THEREOF” (AETHER THERAPEUTICS INC., priority 2021, published 2024).

“Also recorded” adds a separate entry of the source. Like-named read-outs stand apart in the source and are kept apart here.

Series [1] in a line: Oral bioavailability in humans. As to conditions: human, in vivo. The source says:
(§1) Additional preferred formulations include transdermal patch application and intranasal application (with partial direct access to the brain, bypassing the blood-brain-barrier). When combined with opioid analgesics in a co-formulation, LD-6BN can be delivered in the same formulation type for any of the opioid analgesics currently used clinically, including sustained release oral preparations. No dosage adjustments are needed.

For another series, the system named is MOR-μ*. The series can be described thus: Prevention/reversal of opioid dependence in animal models (FIG. 1, methadone-treated animals). As to conditions: low dose, no interference with opioid analgesia, no withdrawal. It is filed as in vivo, guinea pig.
The conditions of series [2]: humans; cited from earlier work.
In a further series the test system is peripheral MOR. As to conditions: methadone maintenance subjects, cited from earlier work.
The nature of series [3]: Oral bioavailability in rodents. As to conditions: in vivo. As to the method: In one embodiment, the dose of 6BN is from 0.001 to 0.25 mg. In another embodiment, the dose of 6BN is from 0.25 to 0.50 mg. In a further embodiment, the dose of 6BN is from 0.50 to 0.75 mg. In a still further embodiment, the dose of 6BN is from 0.75 to 1.0 mg. In a still another embodiment, the dose of 6BN is from 1.0 to 1.25 mg. In another embodiment, the dose of 6BN is from 1.25 to 1.5 mg. In a further embodiment, the dose of 6BN is from 1.5 to 1.75 mg. In a still further embodiment, the dose of 6BN is from 1.75 to 2.0 mg. In a still further embodiment, the dose of 6BN is from 2.0 to 3.0 mg. These projected dose ranges can be modified once clinical results with LD-6BN are available (for example oral bioavailability, estimated here to be ˜30% as observed in rodents.

Series [4] relates to MOR. The experiment in a line: Antagonist potency when administered before morphine in mice. As to conditions: for change of antagonist potency when given before morphine compared to the same time: ~2 h before morphine. It is filed as in vivo.
Another series is described as follows: Water solubility. Type of series: physicochemical.
Text: as §1

Series [5] concerns peripheral sensory neurons. The note with it: after washing out the drugs, 6BN tested at 10 μM; cited from earlier work.
Series [6] can be described thus: Blood and brain levels of 6BN after s.c. doses (FIG. 3). Type of series: in vivo, guinea pigs. How it is done: Therefore, when serving as an addiction modulator, LD-6BN interacts effectively with both peripheral and central opioid receptors. Its effect on reversing opioid induced hyperalgesia might at least in part occur by acting on MOR in peripheral nociceptor neurons (15), but reversal of opioid dependence is likely driven by a central effect. The level of MOR bound 6BN after an s.c. dose of 0.02 mg/kg is estimated to occupy ˜10% of MOR sites, assuring a gradual reversal of MOR-μ* to MOR-μ and MOR-μ^x, insufficient to interfere with opioid analgesia, or cause withdrawal in dependent subjects.
(§2) High potency in facilitating gradual conversion of the dependent state (elevated MOR-μ*) back to the resting and/or reserve MOR states. Following LD-6B dosing, only a low fractional receptor occupancy is sufficient to reverse the dependent state in a gradual dynamic fashion, further accounting for high potency as an addiction modulator. • 5. When designed to act as an antagonist (doses above the LD-6BN range), potency is expected to increase over time when administered before an opioid agonist, presumably via high MOR-μ* occupancy and thereby more rapid reversal of MOR-μ* back to its resting or reserve states. […] Morphinan analogues of 6BN tend to bind to all opioid receptors with varying potency and efficacy (patents (47)). […] Potency of potential addiction modulators should therefore be tested for binding and efficacy at MOR, DOR (delta), and KOR, to detect differences between them and anticipate potential variation in clinical outcomes.

For series [7], the system named is morphine induced slowing of bowel movements. As to conditions: cited from earlier work.
The target in series [8] is kappa opioid receptors (KOR) (Homo sapiens, UniProt P41145). The experiment in a line: Inverse agonist activity at KOR pretreated in vitro with KOR agonists. Type of series: biochemical.
Text: as §2

In series [9] the target is T1, MOR (Homo sapiens, UniProt P35372). As to conditions: 6β-naltrexol compared with naltrexone; cited from earlier work.
Series [10] addresses T1, MOR. The series can be described thus: MOR affinity (in vitro binding).
Series [11] addresses T1, MOR. The experiment in a line: Neutral antagonism at MOR. From the text: (§3) The invention embodies usage of any of these compounds or derivatives or metabolites thereof.
The target of series [12] is T1, MOR. The note with it: in vivo.
Text: as §3

In series [13] the test system is MOR. As to conditions: opioid detoxification/weaning with descending doses of buprenorphine; cited from earlier work.

T1 sequence (P35372 whole entry): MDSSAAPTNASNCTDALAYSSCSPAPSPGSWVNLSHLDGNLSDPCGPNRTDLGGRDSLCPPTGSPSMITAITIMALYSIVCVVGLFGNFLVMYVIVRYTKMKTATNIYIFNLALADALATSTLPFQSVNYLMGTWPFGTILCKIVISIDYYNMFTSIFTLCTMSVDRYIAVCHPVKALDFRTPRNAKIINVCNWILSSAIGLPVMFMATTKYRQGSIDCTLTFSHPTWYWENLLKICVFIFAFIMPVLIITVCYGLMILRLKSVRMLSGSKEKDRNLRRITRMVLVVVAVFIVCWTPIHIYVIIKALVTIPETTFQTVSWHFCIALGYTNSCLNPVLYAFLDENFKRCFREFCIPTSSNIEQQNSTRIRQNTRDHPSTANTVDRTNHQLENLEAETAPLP
kappa opioid receptors (KOR), sequence (P41145 whole entry): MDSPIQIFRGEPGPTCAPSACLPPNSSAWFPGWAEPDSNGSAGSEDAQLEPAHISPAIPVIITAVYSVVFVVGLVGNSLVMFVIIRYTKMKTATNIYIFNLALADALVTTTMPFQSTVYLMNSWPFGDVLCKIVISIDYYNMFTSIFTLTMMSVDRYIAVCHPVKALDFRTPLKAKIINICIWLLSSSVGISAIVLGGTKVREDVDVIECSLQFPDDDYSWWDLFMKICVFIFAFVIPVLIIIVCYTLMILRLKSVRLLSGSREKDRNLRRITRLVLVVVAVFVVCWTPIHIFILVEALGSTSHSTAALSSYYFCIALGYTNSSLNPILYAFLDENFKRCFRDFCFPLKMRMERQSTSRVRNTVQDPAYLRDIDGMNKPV
Text for MOR-μ*: FIG. 1 provides data showing prevention of withdrawal behavior in methadone-treated animals.

The bioavailability is dose-corrected exposure relative to a reference, in per cent. Regarding `Oc1ccc2c3c1O[C@H]1[C@H](O)CC[C@@]4(O)[C@@H](C2)N(CC2CC2)CC[C@]314` [6BN, 6β-naltrexol], the bioavailability in series [1] and in series [3] was about 30% each time. For the same compound, the “reversal/prevention of the opioid dependent state” value in the series with MOR-μ* (listed as 6β-Naltrexol) is “extreme potency”; with MOR-μ* (listed as 6β-naltrexol), “reverses the dependent state with high potency”. In [2], the half-life in blood was about 12 h. In addition, the central withdrawal symptoms entry in the series with peripheral MOR (0.5-1.0 mg i.v.) is “no central withdrawal symptoms”. Also, the tolerated i.v. dose in the series on peripheral MOR (i.v., peripheral effects and bowel movements experienced) was 0.5 to 1.0 mg. In addition, the “pre-injection time of maximal delayed antagonist action” value in the series with MOR [4] (high doses) is given as about 2 h. Further, in the series on MOR [4], the “change of antagonist potency when given before morphine compared to the same time” value is recorded as “becomes more potent as an antagonist”. The water solubility entry in “Water solubility” was “highly water soluble”. Also, the “effect on MOR-μ* state” value in series [5] was “reverses MOR-μ* back to the inactive state”. Also, in series [6] (Cavia porcellus, sc, after an s.c. dose of 0.02 mg/kg, estimated, read-out: occupancy of MOR sites by bound 6BN), the receptor occupancy at 0.02 mg/kg is about 10%. Moreover, the half-life in [6] (guinea pig, blood, sc, 1 mg/kg s.c., guinea pigs, read-out: initial blood t1/2 (converted)) was about 1 h. Besides, the concentration at 24 h in series [6] (guinea pig, brain, sc, 24 h after a 1 mg/kg s.c. dose, guinea pigs, read-out: brain level) came to 0.5 ng/g. In addition, the blood-brain-barrier penetration entry in series [6] (guinea pig, in vivo) is recorded as “slowly”. Moreover, the suppression of analgesia result in series [7] (20 mg, highest dose tested, administered 30 min before morphine) was “did not suppress analgesia”. The “ID50 against morphine induced slowing of bowel movements” value in series [7] (i.v., against 10 mg morphine, opioid naïve subjects) is about 3 mg. The “activity at KOR pretreated with KOR agonists” value in series [8] is on record as “detectable inverse agonist activity”. Further, the “affinity for MOR” value on MOR [9] is “nearly equally robust affinities”.

Regarding `CC(=O)N[C@@H]1CC[C@@]2(O)[C@H]3Cc4ccc(O)c5c4[C@@]2(CCN3CC2CC2)[C@@H]1O5` [6β-naltrexamide], the “affinity to MOR in vitro” value on MOR [10] is “high affinity”. Also, in the series on MOR [4], the “change of antagonist potency when given before morphine compared to the same time” value is “gains potency; also recorded: increasing potency as a neutral antagonist”. At MOR [11], the “potency as a neutral antagonist” value is “low potency as a neutral antagonist” and the type of antagonism result was “neutral antagonism”. For the same compound, the peripheral selectivity result on MOR [12] is reported as “peripheral selectivity”. In addition, the peripheral selectivity entry on MOR [12] (listed as 6β-Natrexamide) is listed as “strong peripherally selective activity”.

Take `O=C1CC[C@@]2(O)[C@H]3Cc4ccc(O)c5c4[C@@]2(CCN3CC2CC2)[C@H]1O5` [naltrexone, reference compound]: the “effect on MOR-μ* state” value in series [5] is on record as “lock MOR into the active MOR-μ* state while blocking MOR-μ* signaling”. Besides, in the series on MOR [13], the “initial total oral dose above which withdrawal symptoms occur” value is at most 0.25 mg.
